Test results from patent US20250375436A1, “SERDEXMETHYLPHENIDATE FOR TREATMENT OF IDIOPATHIC HYPERSOMNIA” (ZEVRA THERAPEUTICS, INC., priority 2024, published 2025).

What was measured:
[1] = Comparison of serdexmethylphenidate to other prescription treatments for sleep disorders (key attributes)
Source text: The data presented in the preceding examples supports the conclusion that serdexmethylphenidate has several advantages over other treatments for IH.
Most importantly, serdexmethylphenidate improves IH, EDS, SI, and BF symptoms; none of the other treatment options in Table 6 improve symptoms in all of the instant sleep disorder. […] Additionally, serdexmethylphenidate has advantageous dosing amounts and dosing schedules compared to both XYWAV® and LUMRYZ®. For example, XYWAV® requires two nighttime dosages, whereas serdexmethylphenidate reduces sleep disorder symptoms with only a single dose before bedtime.

[2] = test system: adults with IH; assay: Phase 2 IH study: Idiopathic Hypersomnia Severity Scale (IHSS); assay type: in vivo, human; conditions: for IHSS, Mean, Titration Baseline: before treatment; for IHSS, Mean, Randomization Baseline (Week 5): end of open-label titration; for IHSS, Difference in LS Mean (SE): SDX vs placebo, ANCOVA
Source text: “Idiopathic Hypersomnia Severity Scale” or “IHSS,” as it relates to the present technology, means a self-administered 14 question survey. Respondents are asked to rate on a 4-point scale (0-3) the severity of IH symptoms such as prolonged and/or unrefreshing daytime and nighttime sleep; impaired daytime alertness, and sleep inertia. The total possible score is 50 if all questions are rated at the maximum score. IHSS scores are generally interpreted as follows: 0-12, mild; 13-25, moderate; 26-38, severe; and 39-50, very severe.
(§1) A double-blind, placebo-controlled, randomized-withdrawal, dose-optimizing, multi-center study investigated the safety and efficacy of serdexmethylphenidate for the treatment of IH. Twenty-two (22) patients completed a 7-week study consisting of two parts. Part 1 of the trial comprised a five-week open-label titration phase during which patients were optimized to one of four total daily doses of serdexmethylphenidate (80, 160, 240, or 320 mg/day). About half the study participants were assigned to take the total daily dose of study drug once per day just before going to bed (QD dosing cohort). The other half was instructed to take half the daily dose of study drug in the morning after awakening and the second half of the daily dose just before going to bed (BID dosing cohort). The titration procedure during the 5-week open label period was conducted as follows: patient treatment was initiated with the lowest total daily dose (80 mg/day) regardless of dosing regimen. At subsequent clinical visits scheduled at intervals of about 1 week each, the dose of the patient was either decreased (except after the first week), maintained, or increased based on tolerability, clinical effect, and adverse events. Depending on the severities of any dose-limiting effects as determined by the clinician, the dose was decreased if possible or the patient was discontinued from the study. If the dose was tolerated by the patient and the clinician determined an opportunity to improve effectiveness, the dose of study drug was increased if possible. Otherwise, the dose was maintained in the subsequent week.
(§2) Part 2 of the trial comprised a two-week randomized (2:1), double-blind, withdrawal phase, during which two-thirds of the trial participants continued to receive their optimized dose while the remaining one-third received placebo. During the withdrawal phase, patients continued the same dosing regimen (QD or BID) they were assigned to at treatment initiation and adhered to during the titration phase.
(§3) Secondary efficacy endpoints included Excessive Daytime Sleepiness (EDS) assessed with the Epworth Sleepiness Scale (ESS). Additional secondary endpoints were based on the Idiopathic Hypersomnia Severity Scale (IHSS), daily rating of difficulty of waking up in the morning assessed with the Sleep Inertia Visual Analog Scale (SI-VAS), and rating of brain fog symptoms measured with an exploratory Brain Fog Scale (BFS). Scores on the ESS, IHSS, and BFS were based on a 1-week look-back period.
The minimally clinically important difference for the IHSS is 4 points. The horizontal dashed line at an IHSS score of 22 points marks the boundary between “normal” individuals and individuals that may have a sleep disorder with more severe symptoms of idiopathic hypersomnia. Scores of 22 and less are generally considered “healthy” or “normal” whereas scores greater than 22 indicate symptoms of idiopathic hypersomnia.

[3] = Single oral dose of 240 mg serdexmethylphenidate in the morning or at night before bedtime, randomized crossover; plasma d-MPH PK by LC/MS-MS; assay type: in vivo, human; conditions: evening vs morning dosing
Protocol: Heathy adult subjects received single oral doses of 240 mg serdexmethylphenidate, either in the morning or at night, just before bedtime, in a randomized crossover fashion with a washout of 6 days between treatments. Subjects went to bed and nighttime conditions were maintained after administration of the evening dose. Multiple blood PK samples and safety parameters were collected after each administration. d-MPH was measured with a validated LC/MS-MS method. A total of 15 subjects (9 males/6 females) were randomized with 14 completing both treatments.

[4] = test system: adults with IH; assay: Phase 2 IH study: Brain Fog Scale (BFS); assay type: in vivo, human; conditions: for Brain Fog, Mean, Titration Baseline: before treatment; for Brain Fog, Mean, Randomization Baseline (Week 5): end of open-label titration; for Brain Fog, Difference in LS Mean (SE): SDX vs placebo, ANCOVA
Source text: “Brain Fog Symptom Score” or “BFS” as it relates to the present technology, means the total score collected with a 19-item questionnaire asking the respondents to describe their mental state while experiencing “Brain Fog” during the last week. The currently recognized 19 mental states of BF include forgetful, difficulty thinking, difficulty focusing, cloudy, difficulty finding the right words/communicating, mental fatigue, slow, mind went blank, spacey, difficulty processing what others say, exhausted, easily distracted, difficulty processing words read, confused, annoyed, sleepy, lost, detached, thoughts moving too quickly. Each item is answered based on a 0 to 4-point Likert scale where 0 means “strongly disagree” and 4 means “strongly agree”.
as §1, §2, §3
The BFS scale is based on a 19 item questionnaire where each question is scored on a 0-4 Likert scale where a score of 0 means “strongly disagree”, a score of 2 means “neutral”, and a score of 4 means “strongly agree”. Possible BFS total scores range from 0 to 76. The horizontal dashed line at a BFS score of 38 points represents the total BFS score of for “neutral” responses to all 19 questions.

[5] = all patients, 5-week titration period
[6] = patients continuing treatment during the 2-week withdrawal period

COC(=O)[C@H](c1ccccc1)[C@H]1CCCCN1C(=O)OC[n+]1cccc(C(=O)N[C@@H](CO)C(=O)O)c1 [SDX, serdexmethylphenidate]
Abnormal Rapid Eye Movement (REM) sleep cycles [1]: does not result in abnormal Rapid Eye Movement (REM) sleep cycles | IH, EDS, SI, and BF symptoms [1]: improves | IHSS, Mean Change from Randomization Baseline to Week 7 ([2]; BID Cohort, SDX (N = 17)): 0.3 | IHSS, Mean, End of Withdrawal Period (Week 7) ([2]; BID Cohort, SDX (N = 17)): 21.6 | IHSS, Mean, Titration Baseline ([2]; BID Cohort, SDX (N = 17)): 34.3 | IHSS, Mean, Randomization Baseline (Week 5) ([2]; BID Cohort, SDX (N = 17)): 21.3 | IHSS, Difference in LS Mean (SE) ([2]; BID Cohort, p-value 0.104): −9.0 (3.48) | IHSS, Mean Change from Randomization Baseline to Week 7 ([2]; QD Cohort, SDX (N = 15)): 0.7 | IHSS, Mean, End of Withdrawal Period (Week 7) ([2]; QD Cohort, SDX (N = 15)): 19.3 | IHSS, Mean, Titration Baseline ([2]; QD Cohort, SDX (N = 15)): 35.4 | IHSS, Mean, Randomization Baseline (Week 5) ([2]; QD Cohort, SDX (N = 15)): 18.6 | IHSS, Difference in LS Mean (SE) ([2]; QD Cohort, p-value 0.208): 0.9 (3.73) | Decrease in mean IHSS score [2, 5]: 12-17 points | Change in mean IHSS score [2, 6]: no more than 0.7 points | Total plasma exposure to d-methylphenidate (AUC0-24h and AUCinf) [3]: similar | Brain Fog, Mean Change from Randomization Baseline to Week 7 ([4]; BID Cohort, SDX (N = 17)): 1.5 | Brain Fog, Mean, End of Withdrawal Period (Week 7) ([4]; BID Cohort, SDX (N = 17)): 30.1 | Brain Fog, Mean, Titration Baseline ([4]; BID Cohort, SDX (N = 17)): 52.4 | Brain Fog, Mean, Randomization Baseline (Week 5) ([4]; BID Cohort, SDX (N = 17)): 28.6 | Brain Fog, Difference in LS Mean (SE) ([4]; BID Cohort, p-value 0.060): −13.7 (7.07) | Brain Fog, Mean Change from Randomization Baseline to Week 7 ([4]; QD Cohort, SDX (N = 15)): 0.9 | Brain Fog, Mean, End of Withdrawal Period (Week 7) ([4]; QD Cohort, SDX (N = 15)): 28.5 | Brain Fog, Mean, Titration Baseline ([4]; QD Cohort, SDX (N = 15)): 52.3 | Brain Fog, Mean, Randomization Baseline (Week 5) ([4]; QD Cohort, SDX (N = 15)): 27.5 | Brain Fog, Difference in LS Mean (SE) ([4]; QD Cohort, p-value 0.995): 0.0 (7.50) | Decrease in mean BFS score [4, 5]: 19-25 points | Change in mean BFS score [4, 6]: no more than 1.5 points
